In patent US20240025906A1 (NEURON23, INC., priority 2022, published 2024):
Where a name gives a salt, the structure may show the parent alone. Read-outs that look alike come from different tables or passages of the source.

Legend:
TYK2 JH2 = biological target: T1, TYK2 JH2 (Homo sapiens, UniProt P29597); experiment: TYK2 JH2 binding assay (KINOMEscan KdELECT competitive binding); conditions: TYK2 JH2 domain
T1 construct: purchased DiscoverX (KINOMEscan KdELECT service); host or cells: E. coli BL21-derived (T7 phage display) or HEK-293
Method in brief: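 Kd values come from qPCR measurement of kinase retained on an immobilized-ligand resin after 1 h room-temperature competition with compound in an 11-point, 3-fold series.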

[1] = tested on: JAK1/TYK2 pSTAT5 (Tyr694/699) in THP-1 cell line; experiment: IFNa-stimulated JAK1/TYK2 pSTAT5 (Tyr694/699) inhibition cellular assay, AlphaLISA; type: cell-based; conditions: THP-1 cells, AlphaLISA (Assay B)
Method in brief: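 THP-1 cells (2e4/well) in HBSS preincubated 1 h at 37° C. with compound (final 10000–0.04 nM, 8 points, 6-fold), then stimulated with IFNa (100 ng/mL stock) for 30 min before lysis. pSTAT5 (Tyr694/699) read by AlphaLISA at 615 nm; IC50 from four-parameter logistic fit with bottom fixed at 0 and Hill slope at −1.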

[2] = KINOMEscan KdELECT (Assay A), read-out: Biochemical TYK2_DiscoverX_JH2_BND_Kd
[3] = Homo sapiens, IFNa-stimulated, read-out: Cellular_THP1_IFNa-pSTATS_TYK2
[4] = Homo sapiens, IFNa-stimulated pSTAT5 (Tyr694/699), read-out: Cellular_THP1_IFNa-pSTATS_TYK2
[5] = KINOMEscan KdELECT (Assay A), read-out: Biochemical TYK2_JH2_Kd
[6] = Homo sapiens, IFNa-stimulated, read-out: Cellular THP1_IFNa-pSTATS_IC50
[7] = DiscoverX KINOMEscan KdELECT (Assay A), read-out: Biochemical TYK2_DiscoverX_JH2_BND_Kd

T1 sequence (P29597 589-875 limits assumed): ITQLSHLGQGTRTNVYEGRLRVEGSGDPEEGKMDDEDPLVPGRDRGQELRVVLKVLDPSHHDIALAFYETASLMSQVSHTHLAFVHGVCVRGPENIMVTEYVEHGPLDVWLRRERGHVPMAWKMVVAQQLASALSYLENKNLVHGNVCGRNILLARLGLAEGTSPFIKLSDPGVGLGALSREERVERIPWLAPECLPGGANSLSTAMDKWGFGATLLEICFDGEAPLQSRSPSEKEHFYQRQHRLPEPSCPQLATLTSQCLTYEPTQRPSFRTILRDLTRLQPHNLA

| SMILES | Kd (TYK2 JH2; [2]) [nM] | IC50 [1, 3] [nM] | Kd (TYK2 JH2; [7]) [nM] | further results |
| --- | --- | --- | --- | --- |
| CNc1ncc(C#Cc2ccc(-n3nccn3)cc2)c2cc(NC(=O)C3CC3)ncc12 [Example 772, N-(5-((4-(2H-1,2,3-triazol-2-yl)phenyl)ethynyl)-8-(methylamino)-2,7-naphthyridin-3-yl)cyclopropanecarboxamide] | ≤ 100 | ≤ 500 | – | – |
| CNc1ncc(-c2nc3ccc(N4CCO[C@@H](C)C4)cn3n2)c2cc(NC(=O)C3CC3(C)C)ncc12 (stereo partly drawn) [Example 1080, 2,2-dimethyl-N-(8-(methylamino)-5-(6-((S)-2-methylmorpholino)-[1,2,4]triazolo[1,5-a]pyridin-2-yl)-2,7-naphthyridin-3-yl)cyclopropane-1-carboxamide] | ≤ 100 | – | – | IC50 [1, 4]: ≤ 500 nM |
| CNc1ncc(C2=CCOCC2)c2cc(NC(=O)C3CC3)ncc12 [Example 67, N-(5-(3,6-dihydro-2H-pyran-4-yl)-8-(methylamino)-2,7-naphthyridin-3-yl)cyclopropanecarboxamide] | – | – | – | Kd (TYK2 JH2; [5]): ≤ 100 nM; IC50 [1, 6]: > 500 nM |
| [2H]C([2H])([2H])Nc1ncc(C#Cc2cn(C)c(C)n2)c2cc(NC(=O)[C@H]3C[C@H]3C)ncc12 [Example 903, (1S,2R)-N-(5-((1,2-dimethyl-1H-imidazol-4-yl)ethynyl)-8-((methyl-d3)amino)-2,7-naphthyridin-3-yl)-2-methylcyclopropane-1-carboxamide] | ≤ 100 | ≤ 500 | – | – |
| CNc1ncc(-c2nc3cc(N4CCOCC4)ccc3o2)c2cc(NC(=O)NC3CC3)ncc12 [Example 450, 1-cyclopropyl-3-(8-(methylamino)-5-(5-morpholinobenzo[d]oxazol-2-yl)-2,7-naphthyridin-3-yl)urea] | – | ≤ 500 | ≤ 100 | – |
| CNc1ncc(C#Cc2sc(C(C)=O)cc2C)c2cc(NC(=O)C3CC3)ncc12 [Example 959, N-(5-((5-acetyl-3-methylthiophen-2-yl)ethynyl)-8-(methylamino)-2,7-naphthyridin-3-yl)cyclopropanecarboxamide] | ≤ 100 | ≤ 500 | – | – |
| CNc1ncc(-c2nc(C)c[nH]2)c2cc(NC(=O)C3CC3)ncc12 [Example 140, N-(5-(4-methyl-1H-imidazol-2-yl)-8-(methylamino)-2,7-naphthyridin-3-yl)cyclopropanecarboxamide] | – | – | – | Kd (TYK2 JH2; [5]): ≤ 100 nM; IC50 [1, 6]: > 500 nM |
| CNc1ncc(C#Cc2ccc(C(F)(F)F)cn2)c2cc(NC(=O)C3CC3)ncc12 [Example 657, N-(8-(methylamino)-5-((5-(trifluoromethyl)pyridin-2-yl)ethynyl)-2,7-naphthyridin-3-yl)cyclopropanecarboxamide] | ≤ 100 | ≤ 500 | – | – |
| CNc1ncc(-c2nc3cc(OC)ccc3o2)c2cc(NC(=O)[C@@H]3C[C@@H]3CF)ncc12 (single isomer, unassigned) [Example 400] | – | ≤ 500 | ≤ 100 | – |
| CNc1ncc(-c2nc3cc(N4C[C@@H](C)O[C@@H](C)C4)ccc3o2)c2cc(NC(=O)C3CC3)ncc12 [Example 315, N-(5-(5-((2R,6S)~2,6-dimethylmorpholino)benzo[d]oxazol-2-yl)-8-(methylamino)-2,7-naphthyridin-3-yl)cyclopropanecarboxamide] | – | ≤ 500 | ≤ 100 | – |
| CNc1ncc(-c2nc3cc(OC(F)(F)F)ccc3o2)c2cc(NC(=O)C3CC3)ncc12 [Example 218, N-(8-(methylamino)-5-(5-(trifluoromethoxy)benzo[d]oxazol-2-yl)-2,7-naphthyridin-3-yl)cyclopropanecarboxamide] | – | ≤ 500 | ≤ 100 | – |
| CNc1ncc(-c2nc3cc(N4CCN(C5COC5)CC4)ccc3o2)c2cc(NC(=O)C3CC3)ncc12 [Example 314, N-(8-(methylamino)-5-(5-(4-(oxetan-3-yl)piperazin-1-yl)benzo[d]oxazol-2-yl)-2,7-naphthyridin-3-yl)cyclopropanecarboxamide] | – | ≤ 500 | ≤ 100 | – |
| CNc1ncc(-c2ccccc2)c2cc(NC(=O)C3CC3F)ncc12 (centres unmarked) [Example 104, 2-fluoro-N-(8-(methylamino)-5-phenyl-2,7-naphthyridin-3-yl)cyclopropane-1-carboxamide] | – | – | – | Kd (TYK2 JH2; [5]): ≤ 100 nM; IC50 ([1]; IFNa-stimulated, read-out: Cellular THP1_IFNa-pSTATS_IC50): > 500 nM |
| CNc1ncc(-c2nc3cc(N4CCCOCC4)ccc3o2)c2cc(NC(=O)C3CC3)ncc12 [Example 318, N-(5-(5-(1,4-oxazepan-4-yl)benzo[d]oxazol-2-yl)-8-(methylamino)-2,7-naphthyridin-3-yl)cyclopropanecarboxamide] | – | ≤ 500 | ≤ 100 | – |
| CNc1ncc(-c2nc3cc(N4CCO[C@H](C(F)F)C4)ccc3o2)c2cc(NC(=O)[C@H]3C[C@H]3C)ncc12 [Example 1058] | ≤ 100 | – | – | IC50 [1, 4]: ≤ 500 nM |
| CNc1ncc(C#Cc2c(Cl)cc(OC)cc2Cl)c2cc(NC(=O)C3CC3)ncc12 [Example 636, N-(5-((2,6-dichloro-4-methoxyphenyl)ethynyl)-8-(methylamino)-2,7-naphthyridin-3-yl)cyclopropanecarboxamide] | ≤ 100 | > 500 | – | – |
| CNc1ncc(-c2cnn(C)c2)c2cc(NC(=O)C3CC3)ncc12 [Example 25, N-(5-(1-methyl-1H-pyrazol-4-yl)-8-(methylamino)-2,7-naphthyridin-3-yl)cyclopropanecarboxamide] | – | – | – | Kd (TYK2 JH2; [5]): ≤ 100 nM; IC50 [1, 6]: > 500 nM |
| CNc1ncc(-c2cnc(C)o2)c2cc(NC(=O)C3CC3)ncc12 [Example 130, N-(8-(methylamino)-5-(2-methyloxazol-5-yl)-2,7-naphthyridin-3-yl)cyclopropanecarboxamide] | – | – | – | Kd (TYK2 JH2; [5]): ≤ 100 nM; IC50 [1, 6]: > 500 nM |
| CNc1ncc(-c2nc3cc(C4CCOCC4)ccc3o2)c2cc(NC(=O)C3CC3)ncc12 [Example 448, N-(8-(methylamino)-5-(5-(tetrahydro-2H-pyran-4-yl)benzo[d]oxazol-2-yl)-2,7-naphthyridin-3-yl)cyclopropanecarboxamide] | – | ≤ 500 | ≤ 100 | – |
| CCOCCc1cccc2nc(-c3cnc(NC)c4cnc(NC(=O)C5CC5)cc34)oc12 [Example 269, N-(5-(7-(2-ethoxyethyl)benzo[d]oxazol-2-yl)-8-(methylamino)-2,7-naphthyridin-3-yl)cyclopropanecarboxamide] | – | ≤ 500 | ≤ 100 | – |
| CNc1ncc(C#Cc2ccncc2F)c2cc(NC(=O)C3CC3)ncc12 [Example 991, N-[5-[2-(3-fluoro-4-pyridyl)ethynyl]-8-(methylamino)-2,7-naphthyridin-3-yl]cyclopropanecarboxamide] | ≤ 100 | ≤ 500 | – | – |
| CNc1ncc(-c2ccc(OC)cc2)c2cc(NC(=O)C3CC3)ncc12 [Example 13, N-(5-(4-methoxyphenyl)-8-(methylamino)-2,7-naphthyridin-3-yl)cyclopropanecarboxamide formate] | – | – | – | Kd (TYK2 JH2; [5]): ≤ 100 nM; IC50 [1, 6]: > 500 nM |
| CNc1ncc(C#Cc2ccc(-n3c(=O)ccn3C)cc2)c2cc(NC(=O)[C@H]3C[C@H]3C)ncc12 [Example 1142, (1S,2R)-2-methyl-N-[8-(methylamino)-5-[2-[4-(2-methyl-5-oxo-pyrazol-1-yl)phenyl]ethynyl]-2,7-naphthyridin-3-yl]cyclopropanecarboxamide] | ≤ 100 | – | – | IC50 [1, 4]: ≤ 500 nM |
| CNc1ncc(C#Cc2ccccc2OC)c2cc(NC(=O)C3CC3)ncc12 [Example 630, N-(5-((2-methoxyphenyl)ethynyl)-8-(methylamino)-2,7-naphthyridin-3-yl)cyclopropanecarboxamide] | ≤ 100 | ≤ 500 | – | – |
| [2H]C([2H])([2H])Nc1ncc(-c2nc3cc(N4C5CCC4COC5)ccc3o2)c2cc(NC(=O)[C@H]3C[C@H]3C)ncc12 [Example 455, (1S,2R)—N-(5-(5-(3-oxa-8-azabicyclo[3.2.1]octan-8-yl)benzo[d]oxazol-2-yl)-8-((methyl-d3)amino)-2,7-naphthyridin-3-yl)-2-methylcyclopropane-1-carboxamide] | – | ≤ 500 | ≤ 100 | – |
| CNc1ncc(-c2nc3ccc(N4CC5CN(C6CC6)CC(C4)O5)cn3n2)c2cc(NC(=O)C3CC3)ncc12 [Example 582, N-(5-(6-(7-cyclopropyl-9-oxa-3,7-diazabicyclo[3.3.1]nonan-3-yl)-[1,2,4]triazolo[1,5-a]pyridin-2-yl)-8-(methylamino)-2,7-naphthyridin-3-yl)cyclopropanecarboxamide] | – | ≤ 500 | ≤ 100 | – |
| CNc1ncc(-c2nc3cc(OC[C@H](C)O)ccc3o2)c2cc(NC(=O)C3CC3)ncc12 [Example 240, (S)—N-(5-(5-(2-hydroxypropoxy)benzo[d]oxazol-2-yl)-8-(methylamino)-2,7-naphthyridin-3-yl)cyclopropanecarboxamide] | – | ≤ 500 | ≤ 100 | – |
| CNc1ncc(-c2nc3ccc(N4CC(OC)C4)cc3o2)c2cc(NC(=O)C3CC3)ncc12 [Example 274, N-(5-(6-(3-methoxyazetidin-1-yl)benzo[d]oxazol-2-yl)-8-(methylamino)-2,7-naphthyridin-3-yl)cyclopropanecarboxamide] | – | ≤ 500 | ≤ 100 | – |
